The values that follow come from publication PMC9945865, “Anticancer evaluation of new organometallic ruthenium(II) flavone complexes” (RSC Medicinal Chemistry, 2022).

Some results are limits rather than exact numbers.

Data set [1] has as its system cervical, breast, hepatocellular and colorectal cancer cell lines. Set-up: method as in PMID 24793593. The following applies: hepatocellular and colorectal cancer cell lines ref 19; cited from earlier work.
Data set [2] relates to ovarian cancer cell lines. Set-up: method as in doi:10.1021/OM500317B. As to conditions: ovarian cancer cell lines ref 20; cited from earlier work.
Data set [3] in a line: Cytotoxicity on HUVECs, trypan blue exclusion assay. Type of data set: cell-based, human. The following applies: human, HUVEC cells, % of control, p > 0.05 vs control, read-out: Cell viability of HUVECs. The procedure: The biocompatibility of flavones (1 and 2)[30] alongside their ruthenium(II) metal complexes (1Ru and 2Ru) with HUVEC cells was established using the trypan blue exclusion assay. A concentration four times higher (i.e. 40 μM) than the highest concentration used for the tube formation antiangiogenic evaluation study (i.e. 10 μM) was selected for this cytotoxic assay.
Cytotoxic activity of treatments on HUVECs using trypan blue exclusion assay.[55] HUVECs were seeded in 96 well plates at 1 × 10^5 cells per mL and cultured for 24 h. Cells were then treated with either luteolin, the synthesised derivatives at 40 μM or culture medium (control) for 24 h. After 24 h, solutions were removed and cells washed with 100 μL PBS followed by the addition of 50 μL trypsin–EDTA and incubation for 5 min to detach the cells. 50 μL of EGM-2 media was added to the wells. 50 μL aliquots of the cell suspension were mixed with equal volume of trypan blue (TB) 0.2% v/v (prepared from 0.4% TB diluted with PBS) then the cells were counted using a haemocytometer. Number of viable and dead cells were counted manually and % cell viability of each treatment was expressed as % of control using the equation:% Cell Viability = (Cell viability in treatment/Cell viability in control) × 100where cell viability was calculated as follows:Cell Viability = Number of viable cells/Total number of cells(viable and dead).

The test system of data set [4] is MDA-MB-231. The data set is described as follows: Wound healing (migration) 24 h scratch assay. It is filed as cell-based, human. As to conditions: MDA-MB-231, 1, 10, 20 μM, 24 h. The procedure:
(§1) Malignant cell migration is essential for tumour invasion and metastasis.[1] Thus, the ability of the synthetic flavones (1 and 2) and their Ru(II) metal complexes (1Ru and 2Ru) to inhibit the migration of breast cancer cells (MCF-7 and MDA-MB-231) was assessed by an in vitro 24 h scratch assay. Low, sub-cytotoxic concentrations of 1, 10 and 20 μM were used in this evaluation.
(§2) MCF-7 or MDA-MB-231 cells were seeded in 12-well plates at 2 × 10^5 or 1 × 10^5 cells per mL, respectively, and cultured until 70–80% confluency. Afterwards, they were serum-starved (0% serum) for 24 h to inactivate the cell proliferation. A scratch was performed on the cell monolayers using a 200 μL pipette tip. Cells were then washed twice with PBS and treated with complete medium and one of the synthesized derivatives at 1, 10 or 20 μM. […] Images of the scratches were taken immediately after performing the scratch (t = 0 h) and at 24 h (t = 24 h). The area not covered by the cells was quantified using ImageJ software. % of wound closure was calculated using the following equation:100 × ((Area of scratch at t0 − Area of scratch at t24)/Area of scratch at t0)

Data set [5] has as its system MCF-7. Description: Wound healing (migration) 24 h scratch assay. It is filed as cell-based, human. The following applies: MCF-7, any of the tested doses (1, 10, 20 μM). The procedure: as §1, §2
Data set [6] concerns c-myc i-motif DNA. Description: I-motif DNA UV melting (thermal stability). Type of data set: binding, human. The following applies: for Tm: c-myc i-motif with flavone at 1 : 1 ratio, 295 nm, free DNA 45 °C; for ΔTm: c-myc i-motif, 1 : 1 ratio, ΔTm = Tm (DNA-flavone) − Tm (DNA). An excerpt:
(§3) The effect of this set of flavones on VEGF and c-myc was further evaluated via thermal stability measurements. Stabilizing/destabilizing the promotor i-motif structures is often reported to regulate expression of the corresponding genes, which for VEGF and c-myc could have detrimental effects on cancer growth and propagation.[48] As observed in Fig. 9, effects of the test flavones on the thermal stability of the VEGF and c-myc i-motif sequences were generally marginal and in agreement with λmax chromophoric shifts. […] Compound 1 destabilized VEGF i-motif in contrast to stabilizing the c-myc one. This mirrored the trend of a higher chromophoric shift observed for flavone 1 with VEGF i-motif sequence that also differed in pattern (hypochromic) from the shift witnessed with the c-myc sequence (hyperchromic). These findings could indicate higher selectivity of the 4-oxo derivative (1) towards VEGF i-motif based on an intercalative binding mode especially that hypochromic shifts are reported with DNA intercalation.[49,50] […] In this regard, the highest i-motif activity seen for the parent flavonoids was switched from VEGF to c-myc with compound 1 and vice versa with compound 2 upon Ru chelation. This emphasizes the key role of the interplay between the substitution at position 4 and metal complexation on the interaction with biological targets.
(§4) UV-visible absorbance measurements and DNA UV melting studies were performed on a Cary 300 C (Varian USA) UV-visible spectrophotometer. VEGF and c-myc i-motif DNA (5′-3′ sequences ([…]) and ([…]), respectively) were purchased from Sigma-Aldrich (Gillingham, UK) and used without further purification. Na cacodylate buffer (20 mM, pH 5.5) was used for both i-motifs. DNA concentrations were determined by measuring the absorbance at 260 nm after melting using the molar extinction coefficient supplied by the manufacturer. VEGF and c-myc i-motifs were prepared for experiments by diluting with buffer solution, annealed with or without the flavonoid at 95 °C for 5 min then gently cooled to room temperature. The stock solutions of the test compounds (20 mM) were prepared in 100% sterile DMSO. These stocks were then appropriately diluted with HPLC grade water and DMSO levels were maintained below 0.1% in the test concentrations.
(§5) UV-visible absorbance measurements and UV melting studies of either free i-motifs (VEGF or c-myc), free flavone (1, 1Ru, 2 or 2Ru) or both i-motif DNA and flavone (2 μM: 2 μM) were recorded using 1.0 cm matched quartz cuvettes. First spectra were recorded in the range of 200–500 nm to determine the relevant wavelength range were no peaks were observed above 320 nm. […] UV-visible absorbance was measured at 25 °C while melting curves were collected at a heating rate of 1 °C min^−1 from 20 to 90 °C. Tm was calculated by non-linear fitting of the sigmoidal curve obtained at 295 nm.

Data set [7] deals with VEGF i-motif DNA. The data set is described as follows: I-motif DNA UV melting (thermal stability). As to conditions: for Tm: VEGF i-motif with flavone at 1 : 1 ratio, 295 nm, free DNA 46 °C; for ΔTm: VEGF i-motif, 1 : 1 ratio, ΔTm = Tm (DNA-flavone) − Tm (DNA). Type of data set: binding, human.
Excerpt: as §3, §4, §5

The subject of data set [8] is c-myc i-motif DNA. Description: I-motif DNA binding, UV-visible absorbance. Set-up: species or system human. The following applies: DNA : flavonoid 2 μM : 2 μM, pH 5.5, 25 °C.
Excerpt: (§6) I-motifs are four stranded antiparallel cytosine rich DNA sequences capable of forming at telomere and promotor regions of genomic DNA.[41,42] […] Due to the presence of potential i-motif forming sequences in 69% of promoter regions in human oncogenes, they are postulated to play a key role in oncogene expression regulation.[44] VEGF and c-myc i-motif sequences are prevalent in oncogene promotor regions in many cancers including breast cancer and as such their ligands have potential anticancer roles.[45] The natural flavonol, fisetin, is reported to specifically bind to VEGF i-motif DNA and regulate its function by stabilizing its hairpin structure.[31] […] In continuation of our investigation of the effects of Ru metal complexation on the different biological activities of flavonoids, interactions with VEGF and c-myc i-motif DNA were studied using UV-vis spectroscopic techniques. […] However, 2Ru's addition led to a 1 nm hypsochromic shift of VEGF i-motif absorbance maximum from 272 to 271 nm. On the other hand, addition of the 4-oxo flavone (1) and its Ru complex (1Ru) led to minor changes in λmax of both sequences that was hypochromic (5% and 3%) with VEGF and hyperchromic (2% and 5%) in case of c-myc (Fig. 8).
as §4, §5

In data set [9] the test system is VEGF i-motif DNA. Description: I-motif DNA binding, UV-visible absorbance. Set-up: species or system human. The following applies: DNA : flavonoid 2 μM : 2 μM, pH 5.5, 25 °C.
Excerpt: as §6, §4, §5

Data set [10] deals with MDA-MB-231. Description: Cell viability, 72 h MTT assay. It is filed as cell-based, human. The following applies: Homo sapiens; MDA-MB-231, 72 h MTT, mean ± SEM, n = 3. The procedure:
(§7) The unique chemical features and coordination geometries of metal ions can add several additional binding interactions that can potentially enhance their anticancer properties for example by allowing intercalation and exploitation of their redox potential.[24] […] In that context, coordination of derivative (2) with a Ru(II) metal ligand is a promising approach to further improve its antiproliferative activity.
(§8) MCF-7 and MDA-MB-231 cells were seeded at a density of 4 × 10^4 and 2 × 10^4 cells per mL, respectively, into 96 well plates and incubated to allow the attachment for 24 h. After 24 h, the cells were treated with one of the synthesised derivatives at range of concentrations (0–100 μM) for 67 h. After 67 h, 20 μL of MTT (5 mg mL^−1) solution in PBS was added to each well and the cells were incubated for 5 h. The purple crystals formed were dissolved in 100 μL of DMSO and the plates were read at 560 nm using a SPECTRA max UV spectrometer (Bio-Rad). The data represented are the mean of the three individual experiments.
A general note: Tetrazolium assays rely on reduction of a dye to a coloured formazan, in cell work by metabolically active cells.

The test system of data set [11] is MCF-7. The data set is described as follows: Cell viability, 72 h MTT assay. It is filed as cell-based, human. The following applies: Homo sapiens, MCF7; MCF-7, 72 h MTT, mean ± SEM, n = 3. The procedure:
as §7, §8

Data set [12] relates to HUVECs. The data set is described as follows: Matrigel endothelial cell tube formation assay (VEGF-mediated). It is filed as cell-based, human. The following applies: compared to the positive control (10 ng mL^−1 VEGF), 12 h. The procedure:
In our recent study,[30] the 4′-chlorophenylflavone derivatives 1 and 2 have shown promising antiangiogenic activities in vitro. Herein, the effect of complexation with a ruthenium(II) metal ligand on the antiangiogenic activity of 1 and 2 was evaluated using the Matrigel tube formation assay that assesses many of the main steps involved in the process of angiogenesis. Inhibition of VEGF-mediated tube formation by the tested substrates was observed after 12 h of treatment on HUVECs at 1 μM and 10 μM concentrations. Luteolin is a natural flavone well known for its high antiangiogenic activity both in vitro and in vivo[34] and as such was used in this study as a reference standard. In accordance with reported data, luteolin inhibited the measured elements of tube formation by 30% compared to the positive control.[34,35] […] The ability of Ru(II) organometallic derivatives to target tumour metastasis has been widely reported both in vitro and in vivo.[3,6,9,36] Thus, based on the preliminary antiangiogenic trends observed for our target Ru(II) complexes (1Ru and 2Ru) and their parent flavones (1 and 2), we further investigated their antiproliferative and antimetastatic potential on the estrogen receptor positive breast cancer cell line (MCF-7) and the more aggressive triple negative cell line (MDA-MB-231).
HUVECs were cultured until confluency and then serum starved (0.1% serum) for 24 h. The tube formation assay followed the reported assay.[56] Briefly, 96 well plates were coated with 50 μL of Corning™ Matrigel™ GFR Membrane Matrix at 4 °C and incubated at 37 °C for 1–2 h to solidify. Serum starved HUVECs were seeded on the solidified Matrigel at 3 × 10^5 cells per mL and treated with medium containing VEGF (10 ng mL^−1) and either luteolin or one of the synthesised derivatives (at 1 μM or 10 μM). Plates were incubated for 12 h and photos covering the whole well area were taken using 4× magnification power of an inverted light microscope. Number of junctions, number and length of segments and master segments were quantified from the taken Images via the Angiogenesis Analyzer plugin[57] in ImageJ software.[58] […] Data was represented as a ratio to the positive control (VEGF enriched).

By IC50 is commonly meant the concentration at which inhibition is half-maximal. On to `N.N.[Cl][Pt][Cl]` [cisplatin], for which the IC50 is 13 to 52 µM in data set [1] and 1.5 to 25 µM in data set [2].

The viability is the share of living cells, or the viability signal relative to a control. As a reminder, the ΔTm is the shift of the melting midpoint relative to a reference. Regarding `O=c1cc(-c2ccc(Cl)cc2)oc2cc(O)cc(O)c12` [compound 1, 2-(4-chlorophenyl)-5,7-dihydroxy-4H-chromen-4-one], the viability at 24 h, 40 µM in data set [3] was about 100%. Also, the “effect on the migration” value in data set [4] is given as “neither showed any effect”. Also, the antimigratory activity entry in data set [5] was “no observed effects”. Also, the Tm in [6] amounted to 46 °C; in data set [7], 44 °C. The ΔTm was 1 °C in data set [6] and −2 °C in [7]. In addition, the “hyperchromic shift (increase) at absorbance maximum λmax” value (“hyperchromic shift (increase)” below) in data set [8] stood at 2%. Moreover, the “hypochromic change at λmax” value in data set [9] came to 5%. Also, the IC50 in data set [10] and in [11] was over 100 µM each time.

A word on the melting point: it is the temperature of the solid-liquid transition. For the compound `Oc1cc(O)c2c(=S)cc(-c3ccc(Cl)cc3)oc2c1` [compound 2, 2-(4-chlorophenyl)-5,7-dihydroxy-4H-chromene-4-thione], the melting point lay in the range of 247.7 to 248 °C. Moreover, the viability at 24 h, 40 µM in [3] is about 100%. For the same compound, in [6], the Tm was found to be 47 °C and the ΔTm stood at 2 °C. In data set [7], the Tm worked out at 47 °C and the ΔTm was determined as 1 °C. Moreover, in [8], the “hyperchromic shift (increase)” value was 18%. Besides, the “hyperchromic shift (increase)” value in [9] was determined as 16%. The IC50 in data set [10] worked out at 43.1 ± 1.29 µM. In [11], this compound gave an IC50 of 1.2 ± 0.8 µM.

For the compound `O=c1cc(-c2ccc(O)c(O)c2)oc2cc(O)cc(O)c12` [luteolin, Luteolin, reference compound], in [12], the “inhibition of the measured elements of tube formation” value worked out at 30%.
